Consider 3 molecules from PMC8125762, “Molecular Regulation of Betulinic Acid on α3β4 Nicotinic Acetylcholine Receptors” (Molecules, 2021).

Molecules are shown by their SMILES. Several values for one entry are separate records, joined by “and”; a condition that tells them apart may be missing. Identical values can stand only once.

For assay [1], the target named is T1, bovine α3β4 nicotinic acetylcholine receptors (Bos taurus, UniProt Q07263+Q8SPU6).
T1 construct: host or cells: Xenopus laevis oocytes injected with in vitro transcribed mRNA
T1 sequence (Q07263 22-495): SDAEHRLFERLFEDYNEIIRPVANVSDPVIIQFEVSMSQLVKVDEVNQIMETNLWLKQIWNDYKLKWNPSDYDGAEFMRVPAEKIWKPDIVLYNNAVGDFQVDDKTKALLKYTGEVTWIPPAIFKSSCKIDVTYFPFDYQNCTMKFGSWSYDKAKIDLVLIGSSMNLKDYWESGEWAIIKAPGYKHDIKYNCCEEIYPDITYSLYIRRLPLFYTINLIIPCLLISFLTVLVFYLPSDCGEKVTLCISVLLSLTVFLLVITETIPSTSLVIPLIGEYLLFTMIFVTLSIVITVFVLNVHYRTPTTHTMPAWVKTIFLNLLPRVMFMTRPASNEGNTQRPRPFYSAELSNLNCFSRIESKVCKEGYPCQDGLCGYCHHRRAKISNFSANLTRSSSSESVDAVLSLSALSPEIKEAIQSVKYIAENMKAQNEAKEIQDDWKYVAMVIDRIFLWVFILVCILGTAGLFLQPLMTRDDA
T1 sequence (Q8SPU6 20-496): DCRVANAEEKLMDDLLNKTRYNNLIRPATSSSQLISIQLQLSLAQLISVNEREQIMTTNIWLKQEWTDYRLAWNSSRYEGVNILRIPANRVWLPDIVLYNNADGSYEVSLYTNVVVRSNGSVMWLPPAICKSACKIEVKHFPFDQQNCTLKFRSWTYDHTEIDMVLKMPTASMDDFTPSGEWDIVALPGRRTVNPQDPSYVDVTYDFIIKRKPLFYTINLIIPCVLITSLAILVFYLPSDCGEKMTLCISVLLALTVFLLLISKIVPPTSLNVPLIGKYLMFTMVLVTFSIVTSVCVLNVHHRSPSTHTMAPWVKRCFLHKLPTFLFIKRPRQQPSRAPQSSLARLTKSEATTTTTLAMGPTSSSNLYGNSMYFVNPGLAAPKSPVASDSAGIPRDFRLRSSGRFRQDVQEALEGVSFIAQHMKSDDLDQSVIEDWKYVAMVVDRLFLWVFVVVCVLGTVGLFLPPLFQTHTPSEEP
Description: Two-electrode voltage clamp of ACh-induced inward current (IACh), wild-type α3β4 nAChRs expressed in Xenopus oocytes. Conditions: for IC50: read-out: IC50 (half-maximal inhibitory response concentration). The format is cell-based. The procedure: (§1) Bovine cholinergic receptor nicotinic α3 subunit (gene accession number: 282702) and β4 subunit (gene accession number: 282181) were obtained from OriGene (Rockville, State Abbr. USA). All reagents, including ACh, MEC, and BA, were purchased from Sigma-Aldrich (St. Louis, MO, USA). All reagent stocks used in electrophysiological experiments were dissolved in dimethyl sulfoxide (DMSO) with the final concentration of DMSO not exceeding 0.01%. Frogs (Xenopus laevis) used in these experiments were obtained from the Korean Xenopus Resource Center for Research (KXRCR000001) and used according to appropriate standards.
(§2) All experiments were performed according to appropriate standards. After anesthetizing frogs on ice preoperatively, oocytes were extracted. Outer layers of oocytes were removed with OR-2 (Oocyte Ringer 2 solution) (82.5 mM NaCl, 2 mM KCl, 1 mM MgCl2, 5 mM HEPES, pH 7.4) containing collagenase II (2 mg/mL) in a room temperature shaker. Only stage V–VI oocytes were selected and used in this study. These oocytes were incubated in ND96 incubation buffer ([…] NaCl, 2 mM KCl, 1 mM MgCl2, 1.8 mM CaCl2, 5 mM HEPES, 2.5 mM sodium pyruvate, and […] gentamycin, pH 7.4) at 18 °C prior to mRNA injection.
(§3) Bovine α3β4 nAChRs cDNAs were restricted using appropriate restriction sites. Bovine α3β4 nAChRs mRNA was then subjected to in vitro transcription using a T7 polymerase kit (mMESSAGE mMACHINE T7 Transcription Kit; Thermo Fisher Scientific, Waltham, MA, USA) followed by injection into oocytes. A glass needle filled with mineral oil was used to install onto a nanoinjector (Drummond Scientific, Broomall, PA, USA). After incubating for 1–3 days, mRNA-injected oocytes were used for electrophysiology experiments.
Two-electrode voltage clamp (TEVC) experiments were performed using oocytes infused with α3β4 nAChR mRNA and cultured according to appropriate criteria. Each oocyte was penetrated with a microelectrode filled with 3M KCl at a resistance of 0.2 MΩ. All experiments were performed at room temperature using a two-electrode voltage clamp (OC-725C; Warner Instruments, Hamden, CT, USA) with a Digidata 1322A. The holding potential of the oocyte membrane potential was −80 mV. ACh and BA used in the experiment were diluted with ND96 buffer to appropriate concentrations. The perfusion rate was about 2 mL per minute. The induced-inward current was converted to digital data with the pClamp 10 software (Axon Instruments, Union City, CA, USA) for further analysis.
The current-voltage relationship was measured by changing the holding potential using a ramp protocol. Voltages ranging from −100 mV to +60 mV were applied to injected oocytes to measure the voltage ramp trace. The values were converted using Clampfit 9.0 (Molecular Devices, San Jose, CA, USA).
Concentration-response curve data were analyzed using SigmaPlot 10.0 software. Equation data were obtained using OriginPro 9.0 software (Origin, MA, USA) and fitted using the Hill equation y = Vmin + (Vmax − Vmin)*[x]^n/([IC50]^n + [x]^n), where Vmax and Vmin were the maximum and minimum current, respectively, x was the concentration of ACh or BA, n was the coefficient of interaction, and IC50 was the concentration of BA that produced half the maximum inhibitory effect. p-values < 0.05 were considered statistically significant.

Assay [2] concerns the target T2, Wild α3 + β4 (I263A) nicotinic acetylcholine receptor (Bos taurus, UniProt Q07263+Q8SPU6, I284A).
T2 construct: host or cells: Xenopus laevis oocytes injected with mRNA; mutant made by site-directed mutagenesis
Description: Two-electrode voltage clamp, single-mutant wild α3 + β4 (I263A) nAChR in Xenopus oocytes. The format is cell-based, bovine. As to conditions: 100 μM ACh, holding potential −80 mV. The protocol:
as §1, §2, §3
(§4) Using α3 and β4 subunit cDNAs, point mutation was performed by PCR with Pfu DNA polymerase (Quikchange II Site-Directed Mutagenesis Kit). After designing a chimeric primer for mutation, optimal PCR conditions were determined. DpnI was added to remove methylated cDNA. […]
(§5) Concentration-response curve data were analyzed using SigmaPlot 10.0 software. […]

Assay [3] addresses T3, α3 (L257A) + β4 (I263A) nicotinic acetylcholine receptor (Bos taurus, UniProt Q07263+Q8SPU6, I284A/L278A).
T3 construct: host or cells: Xenopus laevis oocytes injected with mRNA; mutants made by site-directed mutagenesis
Description: Two-electrode voltage clamp, double-mutant α3 (L257A) + β4 (I263A) nAChR in Xenopus oocytes. The format is cell-based, bovine. As to conditions: 100 μM ACh, holding potential −80 mV. The protocol:
as §1, §2, §3, §4, §5

The target in assay [4] is T4, α3 (L257A) + Wild β4 nicotinic acetylcholine receptor (Bos taurus, UniProt Q07263+Q8SPU6, L278A).
T4 construct: host or cells: Xenopus laevis oocytes injected with mRNA; mutant made by site-directed mutagenesis
T4 sequence (Q07263 22-495 L278A): as the sequence (Q07263 22-495) above, with L257A counted along it
T4 sequence (Q8SPU6 20-496, stated change not applied): as the sequence (Q8SPU6 20-496) above
Description: Two-electrode voltage clamp, single-mutant α3 (L257A) + wild β4 nAChR in Xenopus oocytes. The format is cell-based, bovine. As to conditions: 100 μM ACh, holding potential −80 mV. The procedure:
as §1, §2, §3, §4, §5

Where [5] appears, read: wild-type, co-applied with 100 μM ACh, holding potential −80 mV.

T3 sequence (Q07263 22-495 L278A): as the sequence (Q07263 22-495) above, with L257A counted along it
T3 sequence (Q8SPU6 20-496 I284A): as the sequence (Q8SPU6 20-496) above, with I265A counted along it
T2 sequence (Q07263 22-495, stated change not applied): as the sequence (Q07263 22-495) above
T2 sequence (Q8SPU6 20-496 I284A): as the sequence (Q8SPU6 20-496) above, with I265A counted along it

The molecule `CC(=O)OCC[N+](C)(C)C` [ACh, acetylcholine] had an EC50 in assay [1] (in the absence of BA, holding potential −80 mV) of 9.4 ± 1.25 µM. Moreover, in assay [1] (read-out: maximum efficacy of ACh-induced inward current (Emax)), the Emax was determined as 101 ± 1.47%.

As to `C=C(C)[C@@H]1CC[C@]2(C(=O)O)CC[C@]3(C)[C@H](CC[C@@H]4[C@@]5(C)CC[C@H](O)C(C)(C)[C@@H]5CC[C@]43C)[C@@H]12` [BA, 3β, hydroxy-lup-20 (29) -en-28-oic acid], the IC50 in assay [2] was ~13.4 µM and 13.4 µM; in assay [3], approximately 26.2 µM; in assay [4], 18.6 µM; in assay [1] (setting [5]) it was 12.9 µM and 12.8 µM. The Imax in assay [2] is 33.1 ± 3.3%; in assay [3], 7.4%; in assay [4], 48.9 ± 2.7%; in assay [1] (setting [5]), 101.59 ± 5.98% and 101.5 ± 5.9%. The “nH (Hill coefficient)” value in assay [2] turned out to be 2.7 ± 1.0; in assay [3], 2; in assay [4], 1.6 ± 0.1. Further, the “decrease of efficacy of acetylcholine-induced inward current” value in assay [1] (10 μM BA compared to 0 μM BA) is given as “about 60%”. The “reversible potential (current-voltage relationship)” value in assay [1] (ACh 100 μM and BA co-administered, voltage ramp −100 to +60 mV) is listed as “about −10 mV”. Further, the reversibility of inhibition result in assay [1] (ACh added again after BA co-administration) was “reversible”. For the same molecule, the “inhibition percentage of nAChRs” value in assay [1] (BA 100 μM co-applied with 100 μM ACh, holding potential −80 mV) was determined as 89.2 ± 8.2%. For the same molecule, the “manner of inhibition versus ACh” value in assay [1] (different ACh concentrations with fixed BA 3 μM or 10 μM) is reported as “non-competitive”. For the same molecule, the “Hill coefficient (nH)” value in assay [1] (setting [5]) is given as 0.9 ± 0.1.

Regarding `CNC1(C)C2CCC(C2)C1(C)C` (stereo not shown) [MEC, mecamylamine, reference compound], in assay [1] (MEC 10 μM added at the same time as 100 μM ACh, holding potential −80 mV, read-out: inhibition of IACh (acetylcholine-induced inward peak current)), the inhibition at 10 µM was approximately 100%. Moreover, in assay [1] (setting [5]), the “Hill coefficient (nH)” value was determined as 1.5 ± 0.1 and the IC50 was found to be 1.5 µM.
